In patent US8129371B2, “Thienopyrimidine and pyrazolopyrimidine compounds and their use as mTOR kinase and PI3 kinase inhibitors” (Wyeth LLC, priority 2007, dated 2012):

Columns and labels:
breast line MDA468 = assay: In vitro cell culture growth assay (MTS), MDA468; assay type: cell-based; conditions: Homo sapiens, 72 h, MDA468 cells, three days after drug treatment
In short: (§1)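 Following a one-day attachment period, cells received inhibitors for 3 days. MTS metabolism by viable cells was quantified at 490 nm absorbance and converted to percent of same-plate vehicle control growth.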

PI3K [1] = target: T1, PI3K (Homo sapiens, UniProt P48736); assay: Fluorescence polarization assay for PI3K; assay type: biochemical; conditions: PI3 Kinase γ; read-out: PI3 Kinase γ IC50
T1 construct: PI3 Kinase γ IC50; other: PI3 Kinase γ; other: PI3 Kinase γ isoform, fluorescence polarization
T1 sequence (P48736 whole entry, canonical isoform): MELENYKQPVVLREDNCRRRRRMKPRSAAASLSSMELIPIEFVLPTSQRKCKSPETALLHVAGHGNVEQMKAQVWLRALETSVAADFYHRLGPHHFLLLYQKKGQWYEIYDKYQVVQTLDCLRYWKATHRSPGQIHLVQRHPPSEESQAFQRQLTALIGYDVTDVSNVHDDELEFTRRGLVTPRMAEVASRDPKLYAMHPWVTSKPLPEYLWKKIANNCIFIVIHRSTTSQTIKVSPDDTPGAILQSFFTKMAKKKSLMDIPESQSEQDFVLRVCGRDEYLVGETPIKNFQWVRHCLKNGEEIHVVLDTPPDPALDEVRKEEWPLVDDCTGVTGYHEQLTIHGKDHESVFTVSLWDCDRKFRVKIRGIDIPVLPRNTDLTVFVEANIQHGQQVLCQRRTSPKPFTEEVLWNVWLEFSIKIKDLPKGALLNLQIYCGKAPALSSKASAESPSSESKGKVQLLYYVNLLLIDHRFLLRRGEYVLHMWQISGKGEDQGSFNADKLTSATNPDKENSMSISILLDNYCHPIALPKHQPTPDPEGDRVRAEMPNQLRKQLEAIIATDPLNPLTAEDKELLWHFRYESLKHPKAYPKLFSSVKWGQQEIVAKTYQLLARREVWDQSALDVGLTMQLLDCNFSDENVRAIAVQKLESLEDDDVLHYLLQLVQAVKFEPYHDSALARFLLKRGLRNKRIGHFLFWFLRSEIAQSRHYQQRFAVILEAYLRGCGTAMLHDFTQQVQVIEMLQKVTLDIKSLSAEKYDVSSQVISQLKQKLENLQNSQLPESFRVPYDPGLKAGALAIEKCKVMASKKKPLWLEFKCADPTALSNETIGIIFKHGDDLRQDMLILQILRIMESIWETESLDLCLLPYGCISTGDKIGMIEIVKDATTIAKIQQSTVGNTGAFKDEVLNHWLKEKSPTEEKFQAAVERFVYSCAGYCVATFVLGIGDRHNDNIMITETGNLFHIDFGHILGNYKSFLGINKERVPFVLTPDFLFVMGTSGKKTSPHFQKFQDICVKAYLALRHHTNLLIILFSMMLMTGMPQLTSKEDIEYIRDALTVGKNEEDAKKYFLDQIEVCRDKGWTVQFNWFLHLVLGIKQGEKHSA
In short: (§2)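 PI3K was preincubated with compound (final DMSO 1%), and the reaction was started with PIP2/ATP substrate and run 30–60 min. It was stopped with a detector mix giving 10 nM red probe and 70 nM GST-GRP.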

PI3K [2] = target: T2, PI3K (Homo sapiens, UniProt P42336); assay: Fluorescence polarization assay for PI3K; assay type: biochemical; conditions: PI3 Kinase α; read-out: PI3 Kinase α IC50
T2 construct: PI3 Kinase α IC50; other: PI3 Kinase α; other: PI3 Kinase α isoform, fluorescence polarization
T2 sequence (P42336 whole entry, canonical isoform): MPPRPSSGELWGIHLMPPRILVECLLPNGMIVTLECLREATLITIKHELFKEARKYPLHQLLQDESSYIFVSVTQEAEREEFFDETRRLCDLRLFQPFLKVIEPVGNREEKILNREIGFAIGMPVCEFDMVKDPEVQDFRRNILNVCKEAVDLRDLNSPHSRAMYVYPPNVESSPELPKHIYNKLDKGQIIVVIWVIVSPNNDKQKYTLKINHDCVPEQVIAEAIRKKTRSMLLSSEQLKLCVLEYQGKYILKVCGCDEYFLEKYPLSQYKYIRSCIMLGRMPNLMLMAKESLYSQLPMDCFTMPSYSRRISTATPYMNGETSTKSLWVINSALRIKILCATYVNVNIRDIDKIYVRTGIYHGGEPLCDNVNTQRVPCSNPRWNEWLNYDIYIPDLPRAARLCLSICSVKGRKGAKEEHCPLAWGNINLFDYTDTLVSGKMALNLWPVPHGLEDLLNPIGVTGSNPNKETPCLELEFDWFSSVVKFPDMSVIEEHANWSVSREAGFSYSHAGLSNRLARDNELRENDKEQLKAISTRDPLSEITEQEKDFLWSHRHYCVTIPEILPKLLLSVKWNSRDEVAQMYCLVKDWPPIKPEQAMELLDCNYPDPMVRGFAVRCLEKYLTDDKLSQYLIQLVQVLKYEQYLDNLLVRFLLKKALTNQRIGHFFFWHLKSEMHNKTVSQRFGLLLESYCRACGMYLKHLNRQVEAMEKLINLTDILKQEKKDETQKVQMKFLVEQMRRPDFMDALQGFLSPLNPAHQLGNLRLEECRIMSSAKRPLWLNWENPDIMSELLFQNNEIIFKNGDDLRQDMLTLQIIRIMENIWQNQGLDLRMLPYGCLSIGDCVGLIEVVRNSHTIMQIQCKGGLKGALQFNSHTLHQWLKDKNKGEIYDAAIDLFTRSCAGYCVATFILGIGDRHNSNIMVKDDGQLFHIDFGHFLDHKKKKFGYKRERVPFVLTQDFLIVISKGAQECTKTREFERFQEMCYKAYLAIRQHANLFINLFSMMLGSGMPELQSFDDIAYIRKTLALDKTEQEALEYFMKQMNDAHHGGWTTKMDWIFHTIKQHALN
In short: as §2

prostate line LNCap = assay: In vitro cell culture growth assay (MTS), LNCap; assay type: cell-based; conditions: Homo sapiens, LNCaP, 72 h, LNCap cells, three days after drug treatment
In short: as §1

Human mTOR (FLAG-TOR) = target: T3, Human mTOR (FLAG-TOR) (Homo sapiens, UniProt P42345); assay: Human mTOR kinase assay with purified enzyme, DELFIA format; assay type: biochemical
T3 construct: FLAG
In short: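 Purified FLAG-mTOR in HEPES pH 7.4 buffer with 10 mM MnCl2 was preincubated with inhibitor and reacted 2 h at room temperature with His6-S6K substrate, then stopped with EDTA/EGTA. Phospho-T389 S6K detected by DELFIA with Eu-labelled antibody (40 ng/mL) after plate capture; inhibition computed from signal.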

Compound | IC50 (PI3K [1]) [nM] | IC50 (PI3K [2]) [nM] | IC50 (prostate line LNCap) [nM] | IC50 (Human mTOR (FLAG-TOR)) [nM] | IC50 (breast line MDA468) [nM]
N#CCCn1ncc2c(N3CC4CCC(C3)O4)nc(-c3ccc(NC(=O)Nc4ccc(N5CCOCC5)nc4)cc3)nc21 [Example 223, 1-{4-[1-(2-cyanoethyl)-4-(8-oxa-3-azabicyclo[3.2.1]oct-3-yl)-1H-pyrazolo[3,4-d]pyrimidin-6-yl]phenyl}-3-(6-morpholin-4-ylpyridin-3-yl)urea] | > 10000 | 1660 | 10 | 0.265 | 21
CN(C)CCOc1ccc(NC(=O)Nc2ccc(-c3nc(N4CC5CCC(C4)O5)c4cnn(CCC#N)c4n3)cc2)cc1 [Example 224, 1-{4-[1-(2-cyanoethyl)-4-(8-oxa-3-azabicyclo[3.2.1]oct-3-yl)-1H-pyrazolo[3,4-d]pyrimidin-6-yl]phenyl}-3-{4-[2-(dimethylamino)ethoxy]phenyl}urea] | 2600 | 155 | 3 | 0.745 | 12
CCn1ncc2c(N3CC4CCC(C3)O4)nc(-c3ccc(NC(=O)NCCOCCN)cc3)nc21 [Example 225, 1-[2-(2-aminoethoxy)ethyl]-3-{4-[1-ethyl-4-(8-oxa-3-azabicyclo[3.2.1]oct-3-yl)-1H-pyrazolo[3,4-d]pyrimidin-6-yl]phenyl}urea] | > 10000 | 1390 | 2400 | 26.5 | 4000
CCn1ncc2c(N3CC4CCC(C3)O4)nc(-c3ccc(NC(=O)NCC4CCN(C)CC4)cc3)nc21 [Example 226, 1-{4-[1-ethyl-4-(8-oxa-3-azabicyclo[3.2.1]oct-3-yl)-1H-pyrazolo[3,4-d]pyrimidin-6-yl]phenyl}-3-[(1-methylpiperidin-4-yl)methyl]urea] | > 10000 | 4150 | 700 | 230 | 1300
CCn1ncc2c(N3CC4CCC(C3)O4)nc(-c3ccc(NC(=O)NC4CCCCC4)cc3)nc21 [Example 227, 1-cyclohexyl-3-{4-[1-ethyl-4-(8-oxa-3-azabicyclo[3.2.1]oct-3-yl)-1H-pyrazolo[3,4-d]pyrimidin-6-yl]phenyl}urea] | > 10000 | 5940 | 1200 | 15 | 3200
CCn1ncc2c(N3CC4CCC(C3)O4)nc(-c3ccc(NC(=O)NC4CCN(C)CC4)cc3)nc21 [Example 228, 1-{4-[1-ethyl-4-(8-oxa-3-azabicyclo[3.2.1]oct-3-yl)-1H-pyrazolo[3,4-d]pyrimidin-6-yl]phenyl}-3-(1-methylpiperidin-4-yl)urea] | > 10000 | 4500 | 490 | 31.5 | 900
CN(C)c1ccc(NC(=O)Nc2ccc(-c3nc(N4CC5CCC(C4)O5)c4cnn(C)c4n3)cc2)cc1 [Example 233, 1-[4-(dimethylamino)phenyl]-3-{4-[1-methyl-4-(8-oxa-3-azabicyclo[3.2.1]oct-3-yl)-1H-pyrazolo[3,4-d]pyrimidin-6-yl]phenyl}urea] | > 10000 | 604 | 40 | 0.865 | 140
Cn1ncc2c(N3CC4CCC(C3)O4)nc(-c3ccc(NC(=O)Nc4ccc(N5CCOCC5)nc4)cc3)nc21 [Example 237, 1-{4-[1-methyl-4-(8-oxa-3-azabicyclo[3.2.1]oct-3-yl)-1H-pyrazolo[3,4-d]pyrimidin-6-yl]phenyl}-3-(6-morpholin-4-ylpyridin-3-yl)urea] | > 10000 | 1350 | 7 | 0.37 | 52
Cn1ncc2c(N3CC4CCC(C3)O4)nc(-c3ccc(NC(=O)Nc4ccc(N5CCOCC5)cc4)cc3)nc21 [Example 238, 1-{4-[1-methyl-4-(8-oxa-3-azabicyclo[3.2.1]oct-3-yl)-1H-pyrazolo[3,4-d]pyrimidin-6-yl]phenyl}-3-(4-morpholin-4-ylphenyl)urea] | > 10000 | 371 | 1 | 0.245 | 8
CNC(=O)Nc1ccc(-c2nc(N3CC4CCC(C3)O4)c3cnn(CCF)c3n2)cc1 [Example 241, 1-{4-[1-(2-fluoroethyl)-4-(8-oxa-3-azabicyclo[3.2.1]oct-3-yl)-1H-pyrazolo[3,4-d]pyrimidin-6-yl]phenyl}-3-methylurea] | > 10000 | 551 | 110 | 0.95 | 230
CN(C)c1ccc(NC(=O)Nc2ccc(-c3nc(N4CC5CCC(C4)O5)c4cnn(CCF)c4n3)cc2)cc1 [Example 242, 1-[4-(dimethylamino)phenyl]-3-{4-[1-(2-fluoroethyl)-4-(8-oxa-3-azabicyclo[3.2.1]oct-3-yl)-1H-pyrazolo[3,4-d]pyrimidin-6-yl]phenyl}urea] | > 10000 | 869 | 4 | 0.655 | 19
CN(C)CCOc1ccc(NC(=O)Nc2ccc(-c3nc(N4CC5CCC(C4)O5)c4cnn(CCF)c4n3)cc2)cc1 [Example 243, 1-{4-[2-(dimethylamino)ethoxy]phenyl}-3-{4-[1-(2-fluoroethyl)-4-(8-oxa-3-azabicyclo[3.2.1]oct-3-yl)-1H-pyrazolo[3,4-d]pyrimidin-6-yl]phenyl}urea] | 1300 | 116 | 4 | 0.835 | 9
O=C(Nc1ccc(-c2nc(N3CC4CCC(C3)O4)c3cnn(CCF)c3n2)cc1)Nc1ccc(N2CCOCC2)cc1 [Example 244, 1-{4-[1-(2-fluoroethyl)-4-(8-oxa-3-azabicyclo[3.2.1]oct-3-yl)-1H-pyrazolo[3,4-d]pyrimidin-6-yl]phenyl}-3-(4-morpholin-4-ylphenyl)urea] | > 10000 | 739 | 1 | 0.185 | 7

Compounds with a lower IC50 (PI3K [1]), results first:

IC50 (PI3K [1]) [nM] | IC50 (PI3K [2]) [nM] | IC50 (prostate line LNCap) [nM] | IC50 (Human mTOR (FLAG-TOR)) [nM] | Compound | IC50 (breast line MDA468) [nM]
1100 | 162 | 2 | 0.355 | Cn1ncc2c(N3CC4CCC(C3)O4)nc(-c3ccc(NC(=O)Nc4ccc(N)cc4)cc3)nc21 [Example 234, 1-(4-aminophenyl)-3-{4-[1-methyl-4-(8-oxa-3-azabicyclo[3.2.1]oct-3-yl)-1H-pyrazolo[3,4-d]pyrimidin-6-yl]phenyl}urea] | 11
1060 | 187 | 3 | 0.625 | CN1CCN(c2ccc(NC(=O)Nc3ccc(-c4nc(N5CC6CCC(C5)O6)c5cnn(C)c5n4)cc3)cn2)CC1 [Example 235, 1-{4-[1-methyl-4-(8-oxa-3-azabicyclo[3.2.1]oct-3-yl)-1H-pyrazolo[3,4-d]pyrimidin-6-yl]phenyl}-3-[6-(4-methylpiperazin-1-yl)pyridin-3-yl]urea] | 68
916 | 116 | 1 | 0.305 | Cn1ncc2c(N3CC4CCC(C3)O4)nc(-c3ccc(NC(=O)Nc4ccc(S(=O)(=O)CCN5CCCCC5)cc4)cc3)nc21 [Example 240, 1-{4-[1-methyl-4-(8-oxa-3-azabicyclo[3.2.1]oct-3-yl)-1H-pyrazolo[3,4-d]pyrimidin-6-yl]phenyl}-3-{4-[(2-piperidin-1-ylethyl)sulfonyl]phenyl}urea] | 8
524 | 60 | < 1 | 0.105 | Cn1ncc2c(N3CC4CCC(C3)O4)nc(-c3ccc(NC(=O)Nc4ccc(CCO)cc4)cc3)nc21 [Example 232, 1-[4-(2-hydroxyethyl)phenyl]-3-{4-[1-methyl-4-(8-oxa-3-azabicyclo[3.2.1]oct-3-yl)-1H-pyrazolo[3,4-d]pyrimidin-6-yl]phenyl}urea] | 2
468 | 47 | < 1 | 0.13 | Cn1ncc2c(N3CC4CCC(C3)O4)nc(-c3ccc(NC(=O)Nc4ccc(CO)cc4)cc3)nc21 [Example 231, 1-[4-(hydroxymethyl)phenyl]-3-{4-[1-methyl-4-(8-oxa-3-azabicyclo[3.2.1]oct-3-yl)-1H-pyrazolo[3,4-d]pyrimidin-6-yl]phenyl}urea] | < 1
440 | 64 | 1 | 0.108 | Cn1ncc2c(N3CC4CCC(C3)O4)nc(-c3ccc(NC(=O)Nc4ccc(S(C)(=O)=O)cc4)cc3)nc21 [Example 239, 1-{4-[1-methyl-4-(8-oxa-3-azabicyclo[3.2.1]oct-3-yl)-1H-pyrazolo[3,4-d]pyrimidin-6-yl]phenyl}-3-[4-(methylsulfonyl)phenyl]urea] | 4
260 | 70 | 4 | 0.445 | CN1CCN(c2ccc(NC(=O)Nc3ccc(-c4nc(N5CC6CCC(C5)O6)c5cnn(C)c5n4)cc3)cc2)CC1 [Example 236, 1-{4-[1-methyl-4-(8-oxa-3-azabicyclo[3.2.1]oct-3-yl)-1H-pyrazolo[3,4-d]pyrimidin-6-yl]phenyl}-3-[4-(4-methylpiperazin-1-yl)phenyl]urea] | 43
